Measurements taken from the CheMixHub viscosity set.

Experiment: xn = mol fraction of the nth substance listed

CCCCCCn1cc[n+](C)c1.[Cl][Fe-]([Cl])([Cl])[Cl] + CCOC(C)=O
viscosity [mPa·s], 101 kPa
Conditions | x1 = 0.093 | x1 = 0.1851 | x1 = 0.2815 | x1 = 0.377 | x1 = 0.4719 | x1 = 0.5799 | x1 = 0.6752 | x1 = 0.7764 | x1 = 0.8869
293.15 K | 1.14 | 2.3 | 4.29 | 7.45 | 11.71 | 18.13 | 26.64 | 36.57 | 51.89
298.15 K | 1.07 | 2.11 | 3.87 | 6.62 | 10.22 | 15.53 | 22.42 | 30.27 | 42.15
303.15 K | 1.01 | 1.95 | 3.51 | 5.93 | 9.02 | 13.48 | 19.08 | 25.46 | 34.86
308.15 K | 0.95 | 1.8 | 3.2 | 5.34 | 8.01 | 11.79 | 16.45 | 21.68 | 29.26
313.15 K | 0.89 | 1.68 | 2.93 | 4.84 | 7.18 | 10.4 | 14.33 | 18.64 | 24.83
318.15 K | 0.85 | 1.57 | 2.7 | 4.42 | 6.46 | 9.26 | 12.6 | 16.23 | 21.38
323.15 K | 0.8 | 1.47 | 2.5 | 4.05 | 5.85 | 8.3 | 11.15 | 14.24 | 18.51

CC(O)CCO (configuration not stated) + CN1CCCC1=O
308.15 K, 101 kPa
Conditions | viscosity [mPa·s]
x1 = 0.0282 | 1.736
x1 = 0.0582 | 1.864
x1 = 0.1089 | 2.153
x1 = 0.2015 | 2.678
x1 = 0.3004 | 3.197
x1 = 0.4043 | 4.211
x1 = 0.4985 | 6.742
x1 = 0.5972 | 9.628
x1 = 0.7036 | 14.66
x1 = 0.798 | 22.77
x1 = 0.9029 | 34.77
x1 = 0.94 | 43.52
x1 = 0.9796 | 51.25

CC(O)CCO (configuration not stated) + CN(C)C=O
308.15 K, 101 kPa
Conditions | viscosity [mPa·s]
x1 = 0.0531 | 0.762
x1 = 0.1 | 0.87
x1 = 0.1985 | 1.178
x1 = 0.3069 | 1.688
x1 = 0.4018 | 2.399
x1 = 0.4993 | 3.462
x1 = 0.6107 | 6.621
x1 = 0.6844 | 9.795
x1 = 0.7882 | 17.12
x1 = 0.8916 | 28.94
x1 = 0.9544 | 38.83

c1ccncc1 + CO
298 K, 101.3 kPa
Conditions | viscosity [mPa·s]
x2 = 0.1249 | 0.85
x2 = 0.2338 | 0.82
x2 = 0.4192 | 0.763
x2 = 0.5695 | 0.714
x2 = 0.694 | 0.67
x2 = 0.7987 | 0.631
x2 = 0.8881 | 0.596
x2 = 0.9652 | 0.565

c1ccncc1 + CS(C)=O
viscosity [mPa·s], 101.3 kPa
Conditions | 298.15 K | 308.15 K | 318.15 K
x1 = 0.041 | 1.859 | 1.535 | 1.246
x1 = 0.089 | 1.803 | 1.47 | 1.191
x1 = 0.18 | 1.6 | 1.318 | 1.098
x1 = 0.274 | 1.488 | 1.2 | 1.042
x1 = 0.369 | 1.38 | 1.13 | 0.972
x1 = 0.468 | 1.28 | 1.044 | 0.922
x1 = 0.569 | 1.185 | 0.984 | 0.858
x1 = 0.673 | 1.097 | 0.913 | 0.795
x1 = 0.779 | 1.029 | 0.849 | 0.753
x1 = 0.888 | 0.969 | 0.791 | 0.723
x1 = 0.943 | 0.975 | 0.76 | 0.715

c1ccncc1 + Cc1ccc(C)cc1
viscosity [mPa·s], 101 kPa
Conditions | x2 = 0.0992 | x2 = 0.1993 | x2 = 0.2987 | x2 = 0.3993 | x2 = 0.4949 | x2 = 0.6001 | x2 = 0.6997 | x2 = 0.7994 | x2 = 0.8981
293.15 K | 0.8699 | 0.8193 | 0.7862 | 0.7311 | 0.6964 | 0.6582 | 0.6345 | 0.6152 | 0.5919
303.15 K | 0.7603 | 0.7165 | 0.6902 | 0.6422 | 0.6139 | 0.5868 | 0.5656 | 0.5475 | 0.5316
313.15 K | 0.6704 | 0.6302 | 0.6051 | 0.565 | 0.5399 | 0.5172 | 0.4986 | 0.4819 | 0.4686
323.15 K | 0.5894 | 0.5534 | 0.5296 | 0.496 | 0.4742 | 0.4548 | 0.4385 | 0.4238 | 0.4123

c1ccncc1 + Cc1cccc(C)c1
viscosity [mPa·s], 101 kPa
Conditions | x2 = 0.1993 | x2 = 0.2997 | x2 = 0.3994 | x2 = 0.524 | x2 = 0.5987 | x2 = 0.7003 | x2 = 0.7968 | x2 = 0.8972
293.15 K | 0.8031 | 0.7468 | 0.7151 | 0.6612 | 0.6415 | 0.6114 | 0.59 | 0.5649
303.15 K | 0.7062 | 0.6592 | 0.6241 | 0.5859 | 0.5687 | 0.547 | 0.5279 | 0.5097
313.15 K | 0.6189 | 0.5815 | 0.5504 | 0.5173 | 0.5023 | 0.4843 | 0.4668 | 0.4544
323.15 K | 0.5442 | 0.5118 | 0.4851 | 0.4563 | 0.4433 | 0.428 | 0.4122 | 0.4019

c1ccncc1 + Cc1ccccc1C
viscosity [mPa·s], 101 kPa
Conditions | x2 = 0.1002 | x2 = 0.2001 | x2 = 0.2999 | x2 = 0.3993 | x2 = 0.4968 | x2 = 0.6002 | x2 = 0.6992 | x2 = 0.7985 | x2 = 0.8945
293.15 K | 0.9083 | 0.8811 | 0.8575 | 0.8434 | 0.8268 | 0.806 | 0.7925 | 0.7798 | 0.7769
303.15 K | 0.7933 | 0.7696 | 0.7498 | 0.7375 | 0.721 | 0.7069 | 0.6976 | 0.6881 | 0.6804
313.15 K | 0.7 | 0.6779 | 0.6586 | 0.6456 | 0.63 | 0.6195 | 0.6097 | 0.6015 | 0.595
323.15 K | 0.6145 | 0.5949 | 0.5776 | 0.5654 | 0.5525 | 0.5433 | 0.5347 | 0.528 | 0.5228
